Patent US8680159B2, “Bradykinin 1 receptor modulating compounds” (Gruenenthal GmbH, priority 2010, dated 2014)

target: T1, B1R receptor of the rat (CHO K1 cells stably transfected with the B1R gene of the rat) (Rattus norvegicus, UniProt P97583); test: Functional study on the bradykinin receptor 1 (B1R), Ca2+ fluorescence (Fluo-4) FLIPR/Novostar assay, rB1R cells; type: cell-based; details: CHO-K1, 10 μM, read-out: % Inhibition (r-B1R) at 10 μM
T1 construct: expressed in transfected cells; host or cells: CHO K1 cells (Chinese hamster ovary), stably transfected
T1 sequence (P97583 1-337): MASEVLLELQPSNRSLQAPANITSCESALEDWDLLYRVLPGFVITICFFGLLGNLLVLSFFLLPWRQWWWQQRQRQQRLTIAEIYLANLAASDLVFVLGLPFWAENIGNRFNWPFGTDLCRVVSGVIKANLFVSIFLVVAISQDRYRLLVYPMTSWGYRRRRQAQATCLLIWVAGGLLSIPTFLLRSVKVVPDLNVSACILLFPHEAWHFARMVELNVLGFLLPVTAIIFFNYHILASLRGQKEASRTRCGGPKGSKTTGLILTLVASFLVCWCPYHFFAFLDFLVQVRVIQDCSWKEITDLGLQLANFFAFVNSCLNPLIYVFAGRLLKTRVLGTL
Method: The agonistic or antagonistic action of substances can be quantified on the bradykinin receptor 1 (B1R) of the species human and rat using ectopically expressing cell lines (CHO K1 cells) and with the aid of a Ca^2+-sensitive dye (Fluo-4) using a fluorescent imaging plate reader (FLIPR). The indication in % activation is based on the Ca^2+ signal after addition of Lys-Des-Arg^9-bradykinin (0.5 nM) or Des-Arg^9-bradykinin (100 nM). Antagonists lead to suppression of the Ca^2+ influx after the addition of the agonist. % Inhibition compared with the maximum achievable inhibition is indicated.
The agonistic or antagonistic action of substances can be determined on the bradykinin receptor 1 (B1R) of the species human and rat using the following assay. According to this assay, the increase in intracellular Ca^2+ following administration of a B1R agonist is quantified with the aid of a Ca^2+-sensitive dye (Fluo-4 type, Molecular Probes Europe BV, Leiden, Netherlands) using a Fluorescent Imaging Plate Reader (FLIPR, Molecular Devices, Sunnyvale, USA) and/or using a Novostar (BMG Labtech GmbH, Offenburg, Germany).
Chinese hamster ovary cells (CHO K1 cells) which have been stably transfected with the human B1R gene (hB1R cells) or with the B1R gene of the rat (rB1R cells) are used. For functional studies, the cells are plated out on black 96-well plates having a clear base (BD Biosciences, Heidelberg, Germany or Greiner, Frickenhausen, Germany) in a density of 20,000-35,000 cells/well. The cells are left overnight at 37° C. and with 5% CO2 in culture medium (hB1R cells: Nutrient Mixture Ham's F12, Gibco Invitrogen GmbH, Karlsruhe, Germany or DMEM, Sigma-Aldrich, Taufkirchen, Germany; rB1R cells: D-MEM/F12, Gibco Invitrogen GmbH, Karlsruhe, Germany), with 10 vol. % FBS (fetal bovine serum, Gibco Invitrogen GmbH, Karlsruhe, Germany or PAN Biotech GmbH, Aidenbach, Germany). On the following day, the cells are loaded for 60 minutes at 37° C. with 2.13 μM Fluo-4 (Molecular Probes Europe BV, Leiden, Netherlands) in HBSS buffer (Hank's buffered saline solution, Gibco Invitrogen GmbH, Karlsruhe, Germany) […] (Sigma-Aldrich, Taufkirchen, Germany) and 10 mM HEPES (Sigma-Aldrich, Taufkirchen, Germany). The plates are then washed twice with HBSS buffer, and HBSS buffer additionally containing 0.1% BSA (bovine serum albumin; Sigma-Aldrich, Taufkirchen, Germany), 5.6 mM glucose and 0.05% gelatin (Merck KGaA, Darmstadt, Germany) is added to the plates. After incubation for a further 20 minutes at room temperature, the plates are inserted into the FLIPR or Novostar for Ca^2+ measurement. Alternatively, washing is carried out with buffer A (15 mM HEPES, 80 mM NaCl, 5 mM KCl, 1.2 mM CaCl2, 0.7 mM MgSO4, 2 g/l glucose, 2.5 mM probenecid) followed by loading with buffer A with added 2.5 μM Fluo-4 and 0.025% Pluronic F127 (Sigma-Aldrich, Taufkirchen, Germany). The cells are then washed twice with buffer A and incubated for 30 minutes at room temperature with buffer A additionally containing 0.05% BSA and 0.05% gelatin and are then inserted into the FLIPR or Novostar for Ca^2+ measurement. The Ca^2+-dependent fluorescence is measured before and after the addition of substances (λex=488 nm, λem=540 nm). Quantification is carried out by measuring the highest fluorescence intensity (FC, fluorescence counts) over time.
The FLIPR protocol consists of 2 substance additions, which are pipetted in the FLIPR. In the case of measurements using the Novostar, only the second substance addition is pipetted in the device. Both devices measure the fluorescence intensity over time. Test substances (10 μM) are first pipetted onto the cells and the intracellular Ca^2+ increase is compared with the control (hB1R: Lys-Des-Arg^9-bradykinin>=50 nM; rB1R: Des-Arg^9-bradykinin>=1 μM). This gives the % activation, based on the Ca^2+ signal after addition of Lys-Des-Arg^9-bradykinin (>=50 nM) or Des-Arg^9-bradykinin (>=1 μM). […]

Row | SMILES | inhibition at 10 µM [%]
1 | CN(C(=O)c1ccc2c(c1)C(NC(=O)c1cc(F)ccc1Cl)CC2)C1CCN(c2ccncc2)CC1 (centres unmarked) [CC_H-200, 3-[(2-Chloro-5-fluoro-benzoyl)amino]-N-methyl-N-(1-pyridin-4-yl-piperidin-4-yl)-2,3-dihydro-1H-indene-5-carboxylic acid amide] | 111
2 | CN(C(=O)c1ccc2c(c1)C(NC(=O)c1cc(C(F)(F)F)ccc1Cl)CC2)C1CCN(c2ccncc2)CC1 (centres unmarked) [CC_H-201, 3-[[2-Chloro-5-(trifluoromethyl)-benzoyl]amino]-N-methyl-N-(1-pyridin-4-yl-piperidin-4-yl)-2,3-dihydro-1H-indene-5-carboxylic acid amide] | 111
3 | Cc1ccc(F)c(C(=O)NC2CCc3ccc(C(=O)N(C)C4CCN(c5ccncc5)CC4)cc32)c1Cl (centres unmarked) [CC_H-202, 3-[(2-Chloro-6-fluoro-3-methyl-benzoyl)amino]-N-methyl-N-(1-pyridin-4-yl-piperidin-4-yl)-2,3-dihydro-1H-indene-5-carboxylic acid amide] | 111
4 | CN(C(=O)c1ccc2c(c1)C(NC(=O)c1cc(Cl)ccc1Cl)CC2)C1CCN(c2ccncc2)CC1 (centres unmarked) [CC_H-203, 3-[(2,5-Dichloro-benzoyl)amino]-N-methyl-N-(1-pyridin-4-yl-piperidin-4-yl)-2,3-dihydro-1H-indene-5-carboxylic acid amide] | 111
5 | CN(C(=O)c1ccc2c(c1)C(NC(=O)c1c(Cl)cccc1C(F)(F)F)CC2)C1CCN(c2ccncc2)CC1 (centres unmarked) [CC_H-204, 3-[[2-Chloro-6-(trifluoromethyl)-benzoyl]amino]-N-methyl-N-(1-pyridin-4-yl-piperidin-4-yl)-2,3-dihydro-1H-indene-5-carboxylic acid amide] | 110
6 | CN(C(=O)c1ccc2c(c1)C(NC(=O)C1CC1)CC2)C1CCN(c2ccncc2)CC1 (centres unmarked) [CC_H-205, 3-(Cyclopropanecarbonylamino)-N-methyl-N-(1-pyridin-4-yl-piperidin-4-yl)-2,3-dihydro-1H-indene-5-carboxylic acid amide] | 98
7 | CN(C(=O)c1ccc2c(c1)C(NC(=O)CC(C)(C)C)CC2)C1CCN(c2ccncc2)CC1 (centres unmarked) [CC_H-206, 3-(3,3-Dimethyl-butanoylamino)-N-methyl-N-(1-pyridin-4-yl-piperidin-4-yl)-2,3-dihydro-1H-indene-5-carboxylic acid amide] | 109
8 | COCC(=O)NC1CCc2ccc(C(=O)N(C)C3CCN(c4ccncc4)CC3)cc21 (centres unmarked) [CC_H-207, 3-[(2-Methoxy-acetyl)amino]-N-methyl-N-(1-pyridin-4-yl-piperidin-4-yl)-2,3-dihydro-1H-indene-5-carboxylic acid amide] | 89
9 | CN(C(=O)c1ccc2c(c1)C(N(C)C(=O)c1cc(F)ccc1Cl)CC2)C1CCN(c2ccncc2)CC1 (centres unmarked) [CC_H-208, 3-[(2-Chloro-5-fluoro-benzoyl)-methyl-amino]-N-methyl-N-(1-pyridin-4-yl-piperidin-4-yl)-2,3-dihydro-1H-indene-5-carboxylic acid amide] | 111
10 | Cc1ccc(F)c(C(=O)N(C)C2CCc3ccc(C(=O)N(C)C4CCN(c5ccncc5)CC4)cc32)c1Cl (centres unmarked) [CC_H-209, 3-[(2-Chloro-6-fluoro-3-methyl-benzoyl)-methyl-amino]-N-methyl-N-(1-pyridin-4-yl-piperidin-4-yl)-2,3-dihydro-1H-indene-5-carboxylic acid amide] | 112
11 | CN(C(=O)c1ccc2c(c1)C(N(C)C(=O)c1cc(Cl)ccc1Cl)CC2)C1CCN(c2ccncc2)CC1 (centres unmarked) [CC_H-210, 3-[(2,5-Dichloro-benzoyl)-methyl-amino]-N-methyl-N-(1-pyridin-4-yl-piperidin-4-yl)-2,3-dihydro-1H-indene-5-carboxylic acid amide] | 112
12 | CN(C(=O)c1ccc2c(c1)C(N(C)C(=O)C1CCCCC1)CC2)C1CCN(c2ccncc2)CC1 (centres unmarked) [CC_H-211, 3-(Cyclohexanecarbonyl-methyl-amino)-N-methyl-N-(1-pyridin-4-yl-piperidin-4-yl)-2,3-dihydro-1H-indene-5-carboxylic acid amide] | 108
13 | CN(C(=O)c1ccc2c(c1)C(N(C)C(=O)C1CC1)CC2)C1CCN(c2ccncc2)CC1 (centres unmarked) [CC_H-212, 3-(Cyclopropanecarbonyl-methyl-amino)-N-methyl-N-(1-pyridin-4-yl-piperidin-4-yl)-2,3-dihydro-1H-indene-5-carboxylic acid amide] | 108
14 | CN(C(=O)c1ccc2c(c1)C(N(C)C(=O)CC(C)(C)C)CC2)C1CCN(c2ccncc2)CC1 (centres unmarked) [CC_H-213, 3-(3,3-Dimethyl-butanoyl-methyl-amino)-N-methyl-N-(1-pyridin-4-yl-piperidin-4-yl)-2,3-dihydro-1H-indene-5-carboxylic acid amide] | 110
15 | CC(=O)N(C)C1CCc2ccc(C(=O)N(C)C3CCN(c4ccncc4)CC3)cc21 (centres unmarked) [CC_H-215, 3-(Acetyl-methyl-amino)-N-methyl-N-(1-pyridin-4-yl-piperidin-4-yl)-2,3-dihydro-1H-indene-5-carboxylic acid amide] | 65
16 | CN(C(=O)c1ccc2c(c1)C(N(C)C(=O)c1cccc(C(F)(F)F)c1Cl)CC2)C1CCN(c2ccncc2)CC1 (centres unmarked) [CC_H-216, 3-[[2-Chloro-3-(trifluoromethyl)-benzoyl]-methyl-amino]-N-methyl-N-(1-pyridin-4-yl-piperidin-4-yl)-2,3-dihydro-1H-indene-5-carboxylic acid amide] | 110
17 | CN(C(=O)c1ccc2c(c1)C(N(C)C(=O)Nc1ccccc1Cl)CC2)C1CCN(c2ccncc2)CC1 (centres unmarked) [CC_H-217, 3-[[(2-Chlorophenyl)-carbamoyl]-methyl-amino]-N-methyl-N-(1-pyridin-4-yl-piperidin-4-yl)-2,3-dihydro-1H-indene-5-carboxylic acid amide] | 94
18 | CN(C(=O)c1ccc2c(c1)C(N(C)C(=O)Nc1cccc(Cl)c1)CC2)C1CCN(c2ccncc2)CC1 (centres unmarked) [CC_H-218, 3-[[(3-Chlorophenyl)-carbamoyl]-methyl-amino]-N-methyl-N-(1-pyridin-4-yl-piperidin-4-yl)-2,3-dihydro-1H-indene-5-carboxylic acid amide] | 109
19 | CN(C(=O)c1ccc2c(c1)C(N(C)C(=O)Nc1c(Cl)cccc1Cl)CC2)C1CCN(c2ccncc2)CC1 (centres unmarked) [CC_H-219, 3-[[(2,6-Dichloro-phenyl)-carbamoyl]-methyl-amino]-N-methyl-N-(1-pyridin-4-yl-piperidin-4-yl)-2,3-dihydro-1H-indene-5-carboxylic acid amide] | 86
20 | CN(C(=O)c1ccc2c(c1)C(N(C)C(=O)Nc1cccc(Cl)c1Cl)CC2)C1CCN(c2ccncc2)CC1 (centres unmarked) [CC_H-220, 3-[[(2,3-Dichloro-phenyl)-carbamoyl]-methyl-amino]-N-methyl-N-(1-pyridin-4-yl-piperidin-4-yl)-2,3-dihydro-1H-indene-5-carboxylic acid amide] | 107
